One data set has as its target NLRP3 inflammasome (Homo sapiens, UniProt Q96P20). The data set is described as follows: THP-1 NLRP3 inflammasome assay (LPS priming plus ATP stimulation, IL-1β ELISA), with Chou-Talalay CI analysis. As to conditions: for inhibition of NLRP3 inflammasome activation (IL-1β production), in words: single agent, THP-1 primed with LPS, stimulated with ATP. (An ELISA detects its analyte on a solid surface through an enzyme-linked reagent.)

Data set [1] is described as follows: Solubility behaviour in the cell-based assay system / aqueous solution.
From the text: The interaction between ashwagandha and turmeric plant extracts was studied. […] To overcome this experimental limitation low doses at approximately the Fa 0.2 range were focused on, and the mean relative inhibition values of the single extract versus the ashwagandha plus turmeric plant extract combination were compared.
The combination of turmeric and pepper (Piper nigrum) plant extracts was investigated.

SMILES strings stand for the structures. Some results are limits rather than exact numbers.

NLRP3 inflammasome, sequence (Q96P20 whole entry): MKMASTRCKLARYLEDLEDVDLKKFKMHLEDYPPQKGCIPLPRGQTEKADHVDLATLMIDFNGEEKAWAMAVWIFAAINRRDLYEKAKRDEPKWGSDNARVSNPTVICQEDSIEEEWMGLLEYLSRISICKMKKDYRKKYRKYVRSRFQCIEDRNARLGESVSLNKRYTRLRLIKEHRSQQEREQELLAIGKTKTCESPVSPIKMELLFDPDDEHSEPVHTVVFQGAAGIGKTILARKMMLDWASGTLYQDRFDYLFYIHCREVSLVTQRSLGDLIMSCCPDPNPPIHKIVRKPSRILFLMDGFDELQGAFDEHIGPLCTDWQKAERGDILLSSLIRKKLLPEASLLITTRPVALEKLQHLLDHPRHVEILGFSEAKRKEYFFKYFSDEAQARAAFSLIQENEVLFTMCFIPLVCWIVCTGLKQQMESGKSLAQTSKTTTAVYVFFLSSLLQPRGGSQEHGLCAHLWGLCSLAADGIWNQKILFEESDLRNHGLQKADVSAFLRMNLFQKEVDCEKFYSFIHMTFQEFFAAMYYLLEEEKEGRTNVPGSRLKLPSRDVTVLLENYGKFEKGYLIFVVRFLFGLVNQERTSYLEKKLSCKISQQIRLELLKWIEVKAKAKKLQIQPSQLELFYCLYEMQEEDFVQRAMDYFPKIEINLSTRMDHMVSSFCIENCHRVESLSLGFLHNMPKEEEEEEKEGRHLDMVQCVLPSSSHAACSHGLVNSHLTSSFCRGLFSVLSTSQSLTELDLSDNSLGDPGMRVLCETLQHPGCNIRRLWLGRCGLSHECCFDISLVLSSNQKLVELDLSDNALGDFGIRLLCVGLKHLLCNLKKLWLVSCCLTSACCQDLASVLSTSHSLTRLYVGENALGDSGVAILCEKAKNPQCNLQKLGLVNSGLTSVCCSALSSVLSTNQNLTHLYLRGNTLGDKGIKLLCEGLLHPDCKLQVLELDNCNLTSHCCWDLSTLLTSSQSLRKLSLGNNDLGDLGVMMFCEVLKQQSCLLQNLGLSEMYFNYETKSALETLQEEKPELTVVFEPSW
Method for NLRP3 inflammasome: Absorbance data obtained from the ELISA assays was transformed into relative inhibition using Microsoft Excel. Dose-response curves and statistical analyses were generated using GraphPad Prism software. To generate dose-response curves, first the dose was transformed into Log10, then curves were generated using the non-linear regression option log[inhibitor] vs response-variable slope (four parameter). Statistical comparisons between treatment and control groups were performed using One Way ANOVA with GraphPad Prism statistical software.
The latest version of CompuSyn software was used to analyse data and generate CI and graphical representations of drug-drug interactions.
Monocytes were first primed for three hours with 100 nM LPS, then stimulated with ATP.

As to `O=C(/C=C/C=C/c1ccc2c(c1)OCO2)N1CCCCC1` [piperine], the “inflammasome inhibition, highest observed” value on NLRP3 inflammasome (limited because compound came out of solution at higher doses) is given as no more than 35%. In addition, the solubility behaviour result in data set [1] is “came out of solution at the higher doses”.
As to `COc1cc(C2Oc3cc([C@H]4Oc5cc(O)cc(O)c5C(=O)[C@@H]4O)ccc3OC2CO)ccc1O` (stereo partly drawn) [silybin], the “interaction in drug combination experiments (polynonogram)” value on NLRP3 inflammasome (combined with withaferin A, curcumin and piperine) was “striking antagonism”. The “inhibition of NLRP3 inflammasome activation (IL-1β production), in words” value at NLRP3 inflammasome is reported as “effectively inhibiting inflammation”.
Regarding `CC1=C(CO)C(=O)O[C@@H]([C@@H](C)[C@H]2CC[C@H]3[C@@H]4C[C@H]5O[C@]56[C@@H](O)C=CC(=O)[C@]6(C)[C@H]4CC[C@]23C)C1` [withaferin A], at NLRP3 inflammasome (low dose: below Fa 0.4 for pure compounds, approximately Fa 0.2 for extracts), the “efficacy relative to vehicle control (ANOVA)” value is “efficacious relative to vehicle control”. Besides, the “inhibition of NLRP3 inflammasome activation (IL-1β production), in words” value on NLRP3 inflammasome is on record as “inhibit NLRP3 inflammasome activity”.

Source of the values: US11173166B2, “Composition and uses thereof” (BH Biotech Pty Ltd, priority 2017, dated 2021).
